{"source": "patent US20230085307A1", "about": "“PYRIDAZINONE COMPOUND AND HERBICIDE” (NISSAN CHEMICAL CORPORATION, priority 2019, published 2023)", "key": {"late watergrass": {"system": "late watergrass", "assay": "Test Example 1: herbicidal activity, application before weed generation under submerged conditions (Table 16, symbol A)", "format": "in vivo, late watergrass (Echinochloa oryzicola)", "details": "320 g/ha applied herbicide", "how_it_was_run": "(§1)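 Submerged Wagner pots (alluvial soil, 4 cm water) sown with weed seeds and planted with 2.5-leaf rice seedlings; emulsifiable concentrate diluted in water applied to water surface on sowing day. Held in greenhouse at 25-30 °C; injury scored 0-5 by herbicidal rate after three weeks.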"}, "Japanese bulrush": {"system": "Japanese bulrush", "assay": "Test Example 1: herbicidal activity, application before weed generation under submerged conditions (Table 16, symbol B)", "format": "in vivo, Japanese bulrush (Schoenoplectus juncoides)", "details": "320 g/ha applied herbicide", "how_it_was_run": "as §1"}, "oval-leafed pondweed": {"system": "oval-leafed pondweed", "assay": "Test Example 1: herbicidal activity, application before weed generation under submerged conditions (Table 16, symbol C)", "format": "in vivo, oval-leafed pondweed (Monochoria vaginalis)", "details": "320 g/ha applied herbicide", "how_it_was_run": "as §1"}, "barnyard grass [1]": {"system": "barnyard grass", "assay": "Test Example 3: herbicidal effect by foliage application, Wagner pot (Table 18, symbol H)", "format": "in vivo, barnyard grass (Echinochloa crus-galli)", "details": "320 g/ha", "how_it_was_run": "(§2)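 Plants were sown in alluvial soil held under 0.1–0.5 cm standing water and grown 14 days in a greenhouse at 25–30 °C. An emulsifiable formulation, water-diluted to the set dose, was then sprayed onto the foliage, and effects were scored three weeks later using previously defined criteria.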"}, "Chinese sprangletop": {"system": "Chinese sprangletop", "assay": "Test Example 3: herbicidal effect by foliage application, Wagner pot (Table 18, symbol D)", "format": "in vivo, chinese sprangletop (Leptochloa chinensis)", "details": "320 g/ha", "how_it_was_run": "as §2"}, "rice flat sedge": {"system": "rice flat sedge", "assay": "Test Example 3: herbicidal effect by foliage application, Wagner pot (Table 18, symbol E)", "format": "in vivo, rice flat sedge (Cyperus iria)", "details": "320 g/ha", "how_it_was_run": "as §2"}, "southern crabgrass [2]": {"system": "southern crabgrass", "assay": "Test Example 4: herbicidal effect by soil treatment (Table 19, symbol F)", "format": "in vivo, southern crabgrass (Digitaria ciliaris)", "details": "amount of applied herbicide 320 g/ha", "how_it_was_run": "(§3)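 Seeds were sown in sterilized diluvial soil and covered with about 1.5 cm of soil. An emulsion formulation diluted with water to a predetermined herbicide amount was sprayed evenly onto the soil surface. Plants grew in a greenhouse at 25° C. to 30° C., and the effect was scored three weeks after application using criteria from an earlier test.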"}, "green foxtail [3]": {"system": "green foxtail", "assay": "Test Example 4: herbicidal effect by soil treatment (Table 19, symbol G)", "format": "in vivo, green foxtail (Setaria viridis)", "details": "amount of applied herbicide 320 g/ha", "how_it_was_run": "as §3"}, "barnyard grass [4]": {"system": "barnyard grass", "assay": "Test Example 4: herbicidal effect by soil treatment (Table 19, symbol H)", "format": "in vivo, barnyard grass (Echinochloa crus-galli)", "details": "amount of applied herbicide 320 g/ha", "how_it_was_run": "as §3"}, "wild oat [5]": {"system": "wild oat", "assay": "Test Example 4: herbicidal effect by soil treatment (Table 19, symbol I)", "format": "in vivo, wild oat (Avena fatua)", "details": "amount of applied herbicide 320 g/ha", "how_it_was_run": "as §3"}, "blackgrass [6]": {"system": "blackgrass", "assay": "Test Example 4: herbicidal effect by soil treatment (Table 19, symbol J)", "format": "in vivo, blackgrass (Alopecurus myosuroides)", "details": "amount of applied herbicide 320 g/ha", "how_it_was_run": "as §3"}, "Italian ryegrass [7]": {"system": "Italian ryegrass", "assay": "Test Example 4: herbicidal effect by soil treatment (Table 19, symbol K)", "format": "in vivo, Italian ryegrass (Lolium multiflorum)", "details": "amount of applied herbicide 320 g/ha", "how_it_was_run": "as §3"}, "windgrass [8]": {"system": "windgrass", "assay": "Test Example 4: herbicidal effect by soil treatment (Table 19, symbol L)", "format": "in vivo, windgrass (Apera spica-venti)", "details": "amount of applied herbicide 320 g/ha", "how_it_was_run": "as §3"}, "velvetleaf [9]": {"system": "velvetleaf", "assay": "Test Example 4: herbicidal effect by soil treatment (Table 19, symbol M)", "format": "in vivo, velvetleaf (Abutilon theophrasti)", "details": "amount of applied herbicide 320 g/ha", "how_it_was_run": "as §3"}, "redroot pigweed [10]": {"system": "redroot pigweed", "assay": "Test Example 4: herbicidal effect by soil treatment (Table 19, symbol N)", "format": "in vivo, redroot pigweed (Amaranthus retroflexus)", "details": "amount of applied herbicide 320 g/ha", "how_it_was_run": "as §3"}, "lambsquarters [11]": {"system": "lambsquarters", "assay": "Test Example 4: herbicidal effect by soil treatment (Table 19, symbol O)", "format": "in vivo, lambsquarters (Chenopodium album)", "details": "amount of applied herbicide 320 g/ha", "how_it_was_run": "as §3"}, "chickweed [12]": {"system": "chickweed", "assay": "Test Example 4: herbicidal effect by soil treatment (Table 19, symbol P)", "format": "in vivo, common chickweed (Stellaria media)", "details": "amount of applied herbicide 320 g/ha", "how_it_was_run": "as §3"}, "persian speedwell [13]": {"system": "persian speedwell", "assay": "Test Example 4: herbicidal effect by soil treatment (Table 19, symbol R)", "format": "in vivo, Persian speedwell (Veronica persica)", "details": "amount of applied herbicide 320 g/ha", "how_it_was_run": "as §3"}, "southern crabgrass [14]": {"system": "southern crabgrass", "assay": "Test Example 5: herbicidal effect by foliage application, plastic box (Table 20, symbol F)", "format": "in vivo, southern crabgrass (Digitaria ciliaris)", "details": "foliage application, 320 g/ha, three weeks after application", "how_it_was_run": "(§4)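 Plants sown in sterilized diluvial soil and grown 14 days in a greenhouse at 25° C to 30° C, then sprayed on the foliage with the compound's emulsion diluted in water to a predetermined herbicide amount. Injury to weeds and crops scored three weeks after application on a visual rating scale.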"}, "green foxtail [15]": {"system": "green foxtail", "assay": "Test Example 5: herbicidal effect by foliage application, plastic box (Table 20, symbol G)", "format": "in vivo, green foxtail (Setaria viridis)", "details": "foliage application, 320 g/ha, three weeks after application", "how_it_was_run": "as §4"}, "barnyard grass [16]": {"system": "barnyard grass", "assay": "Test Example 5: herbicidal effect by foliage application, plastic box (Table 20, symbol H)", "format": "in vivo, barnyard grass (Echinochloa crus-galli)", "details": "foliage application, 320 g/ha, three weeks after application", "how_it_was_run": "as §4"}, "wild oat [17]": {"system": "wild oat", "assay": "Test Example 5: herbicidal effect by foliage application, plastic box (Table 20, symbol I)", "format": "in vivo, wild oat (Avena fatua)", "details": "foliage application, 320 g/ha, three weeks after application", "how_it_was_run": "as §4"}, "blackgrass [18]": {"system": "blackgrass", "assay": "Test Example 5: herbicidal effect by foliage application, plastic box (Table 20, symbol J)", "format": "in vivo, blackgrass (Alopecurus myosuroides)", "details": "foliage application, 320 g/ha, three weeks after application", "how_it_was_run": "as §4"}, "Italian ryegrass [19]": {"system": "Italian ryegrass", "assay": "Test Example 5: herbicidal effect by foliage application, plastic box (Table 20, symbol K)", "format": "in vivo, Italian ryegrass (Lolium multiflorum)", "details": "foliage application, 320 g/ha, three weeks after application", "how_it_was_run": "as §4"}, "windgrass [20]": {"system": "windgrass", "assay": "Test Example 5: herbicidal effect by foliage application, plastic box (Table 20, symbol L)", "format": "in vivo, windgrass (Apera spica-venti)", "details": "foliage application, 320 g/ha, three weeks after application", "how_it_was_run": "as §4"}, "velvetleaf [21]": {"system": "velvetleaf", "assay": "Test Example 5: herbicidal effect by foliage application, plastic box (Table 20, symbol M)", "format": "in vivo, velvetleaf (Abutilon theophrasti)", "details": "foliage application, 320 g/ha, three weeks after application", "how_it_was_run": "as §4"}, "redroot pigweed [22]": {"system": "redroot pigweed", "assay": "Test Example 5: herbicidal effect by foliage application, plastic box (Table 20, symbol N)", "format": "in vivo, redroot pigweed (Amaranthus retroflexus)", "details": "foliage application, 320 g/ha, three weeks after application", "how_it_was_run": "as §4"}, "lambsquarters [23]": {"system": "lambsquarters", "assay": "Test Example 5: herbicidal effect by foliage application, plastic box (Table 20, symbol O)", "format": "in vivo, lambsquarters (Chenopodium album)", "details": "foliage application, 320 g/ha, three weeks after application", "how_it_was_run": "as §4"}, "chickweed [24]": {"system": "chickweed", "assay": "Test Example 5: herbicidal effect by foliage application, plastic box (Table 20, symbol P)", "format": "in vivo, common chickweed (Stellaria media)", "details": "foliage application, 320 g/ha, three weeks after application", "how_it_was_run": "as §4"}, "persian speedwell [25]": {"system": "persian speedwell", "assay": "Test Example 5: herbicidal effect by foliage application, plastic box (Table 20, symbol R)", "format": "in vivo, Persian speedwell (Veronica persica)", "details": "foliage application, 320 g/ha, three weeks after application", "how_it_was_run": "as §4"}}}
{"smiles": "CCCC(=O)Oc1c(C)nn(C)c(=O)c1-c1c(-c2ccc(F)c(F)c2)sc2ccccc12", "note": "[1-047]", "values": [{"measurement": "Herbicidal effect on A: late watergrass (grade 0-5)", "setting": "late watergrass", "result": "3 (Herbicidal rate of 40% or more and less than 70%)"}, {"measurement": "Herbicidal effect on B: Japanese bulrush (grade 0-5)", "setting": "Japanese bulrush", "result": "0 (Herbicidal rate of 5% or less (almost no effect))"}, {"measurement": "Herbicidal effect on C: oval-leafed pondweed (grade 0-5)", "setting": "oval-leafed pondweed", "result": "0 (Herbicidal rate of 5% or less (almost no effect))"}, {"measurement": "herbicidal effect on H (barnyard grass), rating 0-5", "setting": "barnyard grass [1]", "result": "2 (Herbicidal rate of 20% or more and less than 40%)"}, {"measurement": "herbicidal effect on D (Chinese sprangletop), rating 0-5", "setting": "Chinese sprangletop", "result": "0 (Herbicidal rate of 5% or less (almost no effect))"}, {"measurement": "herbicidal effect on E (rice flat sedge), rating 0-5", "setting": "rice flat sedge", "result": "5 (Herbicidal rate of 90% or more (almost completely withered))"}, {"measurement": "herbicidal effect rating, F: southern crabgrass", "setting": "southern crabgrass [2]", "result": "0 (Herbicidal rate of 5% or less (almost no effect))"}, {"measurement": "herbicidal effect rating, G: green foxtail", "setting": "green foxtail [3]", "result": "2 (Herbicidal rate of 20% or more and less than 40%)"}, {"measurement": "herbicidal effect rating, H: barnyard grass", "setting": "barnyard grass [4]", "result": "3 (Herbicidal rate of 40% or more and less than 70%)"}, {"measurement": "herbicidal effect rating, I: wild oat", "setting": "wild oat [5]", "result": "0 (Herbicidal rate of 5% or less (almost no effect))"}, {"measurement": "herbicidal effect rating, J: blackgrass", "setting": "blackgrass [6]", "result": "0 (Herbicidal rate of 5% or less (almost no effect))"}, {"measurement": "herbicidal effect rating, K: Italian ryegrass", "setting": "Italian ryegrass [7]", "result": "0 (Herbicidal rate of 5% or less (almost no effect))"}, {"measurement": "herbicidal effect rating, L: windgrass", "setting": "windgrass [8]", "result": "0 (Herbicidal rate of 5% or less (almost no effect))"}, {"measurement": "herbicidal effect rating, M: velvetleaf", "setting": "velvetleaf [9]", "result": "0 (Herbicidal rate of 5% or less (almost no effect))"}, {"measurement": "herbicidal effect rating, N: redroot pigweed", "setting": "redroot pigweed [10]", "result": "0 (Herbicidal rate of 5% or less (almost no effect))"}, {"measurement": "herbicidal effect rating, O: lambsquarters", "setting": "lambsquarters [11]", "result": "3 (Herbicidal rate of 40% or more and less than 70%)"}, {"measurement": "herbicidal effect rating, P: chickweed", "setting": "chickweed [12]", "result": "5 (Herbicidal rate of 90% or more (almost completely withered))"}, {"measurement": "herbicidal effect rating, R: persian speedwell", "setting": "persian speedwell [13]", "result": "5 (Herbicidal rate of 90% or more (almost completely withered))"}, {"measurement": "herbicidal effect grade, F: southern crabgrass", "setting": "southern crabgrass [14]", "result": "0 (Herbicidal rate of 5% or less (almost no effect))"}, {"measurement": "herbicidal effect grade, G: green foxtail", "setting": "green foxtail [15]", "result": "0 (Herbicidal rate of 5% or less (almost no effect))"}, {"measurement": "herbicidal effect grade, H: barnyard grass", "setting": "barnyard grass [16]", "result": "0 (Herbicidal rate of 5% or less (almost no effect))"}, {"measurement": "herbicidal effect grade, I: wild oat", "setting": "wild oat [17]", "result": "0 (Herbicidal rate of 5% or less (almost no effect))"}, {"measurement": "herbicidal effect grade, J: blackgrass", "setting": "blackgrass [18]", "result": "0 (Herbicidal rate of 5% or less (almost no effect))"}, {"measurement": "herbicidal effect grade, K: Italian ryegrass", "setting": "Italian ryegrass [19]", "result": "0 (Herbicidal rate of 5% or less (almost no effect))"}, {"measurement": "herbicidal effect grade, L: windgrass", "setting": "windgrass [20]", "result": "0 (Herbicidal rate of 5% or less (almost no effect))"}, {"measurement": "herbicidal effect grade, M: velvetleaf", "setting": "velvetleaf [21]", "result": "5 (Herbicidal rate of 90% or more (almost completely withered))"}, {"measurement": "herbicidal effect grade, N: redroot pigweed", "setting": "redroot pigweed [22]", "result": "3 (Herbicidal rate of 40% or more and less than 70%)"}, {"measurement": "herbicidal effect grade, O: lambsquarters", "setting": "lambsquarters [23]", "result": "3 (Herbicidal rate of 40% or more and less than 70%)"}, {"measurement": "herbicidal effect grade, P: chickweed", "setting": "chickweed [24]", "result": "5 (Herbicidal rate of 90% or more (almost completely withered))"}, {"measurement": "herbicidal effect grade, R: persian speedwell", "setting": "persian speedwell [25]", "result": "3 (Herbicidal rate of 40% or more and less than 70%)"}]}
